From US9399626B2, “2-thiopyrimidinones” (Pfizer Inc., priority 2011, dated 2016)
Structures can show the parent of a compound that is named as a salt.

Molecular target: T1, MPO (purified from human polynuclear leukocytes) (Homo sapiens, UniProt P05164)
T1 construct: purified from human polynuclear leukocytes; purchased Calbiochem/EMD Biosciences; host or cells: human polynuclear leukocytes (natural source)
Test: MPO Amplex Red Activity Assay
Type: biochemical
Settings: Table 1, 2 μM H2O2, pH 7.4
Method in brief: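 Human leukocyte MPO […] oxidises 30 μM Amplex Red with 2 μM H2O2 in 50 mM NaPi pH 7.4, 150 mM NaCl, 1 mM DTPA, 2% DMSO. Resorufin fluorescence (ex 530/em 580 nm) read every 20 s, minus catalase background. kobs from the first 600 s, corrected for auto-inactivation, fit versus [I] for kinact/KI.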

T1 sequence (P05164 279-745 limits assumed): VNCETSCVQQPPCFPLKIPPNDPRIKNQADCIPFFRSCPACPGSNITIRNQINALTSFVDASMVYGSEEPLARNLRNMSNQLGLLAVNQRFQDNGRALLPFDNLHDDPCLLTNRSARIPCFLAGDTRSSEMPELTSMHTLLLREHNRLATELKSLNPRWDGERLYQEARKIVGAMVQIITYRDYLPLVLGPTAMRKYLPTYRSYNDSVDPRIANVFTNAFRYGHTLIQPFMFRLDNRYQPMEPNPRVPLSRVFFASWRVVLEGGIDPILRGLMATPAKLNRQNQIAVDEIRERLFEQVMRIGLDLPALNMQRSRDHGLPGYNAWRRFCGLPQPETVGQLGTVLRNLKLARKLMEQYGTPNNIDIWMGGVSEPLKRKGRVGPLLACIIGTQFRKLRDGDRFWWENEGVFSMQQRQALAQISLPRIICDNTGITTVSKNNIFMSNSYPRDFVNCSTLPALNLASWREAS
T1 sequence (P05164 165-273 limits assumed): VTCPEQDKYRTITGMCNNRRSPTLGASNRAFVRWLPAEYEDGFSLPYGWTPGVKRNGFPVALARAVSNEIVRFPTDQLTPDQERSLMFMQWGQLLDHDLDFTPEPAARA

Row | Structure (SMILES) | MPO kinact/Ki
1 | COc1ccc(-c2cc(=O)[nH]c(=S)n2C[C@@H]2CCCNC2)c(OC)c1 [Example 151, 6-(2,4-dimethoxyphenyl)-1-[(3R)-piperidin-3-ylmethyl]-2-thioxo-2,3-dihydropyrimidin-4(1H)-one hydrochloride] | 3740 1/s per M
2 | COc1ccc(-c2cc(=O)[nH]c(=S)n2CCC2CCNCC2)c(OC)c1 [Example 152, 6-(2,4-dimethoxyphenyl)-1-(2-piperidin-4-ylethyl)-2-thioxo-2,3-dihydropyrimidin-4(1H)-one hydrochloride] | 4770 1/s per M
3 | COc1ccc(-c2cc(=O)[nH]c(=S)n2CCC2CCN(C(C)=O)CC2)c(OC)c1 [Example 153, 1-[2-(1-acetylpiperidin-4-yl)ethyl]-6-(2,4-dimethoxyphenyl)-2-thioxo-2,3-dihydropyrimidin-4(1H)-one] | 2200 1/s per M
4 | COCCn1c(-c2ncc[nH]2)cc(=O)[nH]c1=S [Example 154, 6-(1H-imidazol-2-yl)-1-(2-methoxyethyl)-2-thioxo-2,3-dihydropyrimidin-4(1H)-one] | 1070 1/s per M
5 | COc1cccc(-c2cc(=O)[nH]c(=S)n2CCO)c1 [Example 155, 1-(2-hydroxyethyl)-6-(3-methoxyphenyl)-2-thioxo-2,3-dihydropyrimidin-4(1H)-one] | 8090 1/s per M
6 | COc1ccccc1-c1cc(=O)[nH]c(=S)n1CCO [Example 156, 1-(2-hydroxyethyl)-6-(2-methoxyphenyl)-2-thioxo-2,3-dihydropyrimidin-4(1H)-one] | 16800 1/s per M
7 | COc1cccc(OC)c1-c1cc(=O)[nH]c(=S)n1C [Example 157, 6-(2,6-dimethoxyphenyl)-1-methyl-2-thioxo-2,3-dihydropyrimidin-4(1H)-one] | 7320 1/s per M
8 | COCCn1c(-c2ccccc2F)cc(=O)[nH]c1=S [Example 158, 6-(2-fluorophenyl)-1-(2-methoxyethyl)-2-thioxo-2,3-dihydropyrimidin-4(1H)-one] | 1750 1/s per M
9 | COc1ccc(C)cc1-c1cc(=O)[nH]c(=S)n1CCN [Example 159, 1-(2-aminoethyl)-6-(2-methoxy-5-methylphenyl)-2-thioxo-2,3-dihydropyrimidin-4(1H)-one hydrochloride] | 11400 1/s per M
10 | COCCn1c(-c2ccccc2OC)cc(=O)[nH]c1=S [Example 160, 1-(2-methoxyethyl)-6-(2-methoxyphenyl)-2-thioxo-2,3-dihydropyrimidin-4(1H)-one] | 7540 1/s per M
11 | COc1ccc(C)cc1-c1cc(=O)[nH]c(=S)n1CCO [Example 161, 1-(2-hydroxyethyl)-6-(2-methoxy-5-methylphenyl)-2-thioxo-2,3-dihydropyrimidin-4(1H)-one] | 29600 1/s per M
12 | O=c1cc(-c2cccc3ccccc23)n(CCO)c(=S)[nH]1 [Example 162, 1-(2-hydroxyethyl)-6-(1-naphthyl)-2-thioxo-2,3-dihydropyrimidin-4(1H)-one] | 8950 1/s per M
13 | COc1ccc(C#N)cc1-c1cc(=O)[nH]c(=S)n1CCO [Example 163, 3-[3-(2-hydroxyethyl)-6-oxo-2-thioxo-1,2,3,6-tetrahydropyrimidin-4-yl]-4-methoxybenzonitrile] | 8090 1/s per M
14 | COc1ccc(C)cc1-c1cc(=O)[nH]c(=S)n1CC(N)=O [Example 164, 2-[6-(2-methoxy-5-methylphenyl)-4-oxo-2-thioxo-3,4-dihydropyrimidin-1(2H)-yl]acetamide] | 14900 1/s per M
15 | COCCn1c(-c2ccc(N(C)C)nc2)cc(=O)[nH]c1=S [Example 165, 6-[6-(dimethylamino)pyridin-3-yl]-1-(2-methoxyethyl)-2-thioxo-2,3-dihydropyrimidin-4(1H)-one] | 1280 1/s per M
16 | COc1ccc(OC)c(-c2cc(=O)[nH]c(=S)n2CCN)c1 [Example 166, 1-(2-aminoethyl)-6-(2,5-dimethoxyphenyl)-2-thioxo-2,3-dihydropyrimidin-4(1H)-one hydrochloride] | 8920 1/s per M
17 | COc1cccc(OC)c1-c1cc(=O)[nH]c(=S)n1CCO [Example 167, 6-(2,6-dimethoxyphenyl)-1-(2-hydroxyethyl)-2-thioxo-2,3-dihydropyrimidin-4(1H)-one] | 20300 1/s per M
18 | O=c1cc(-c2ccccc2OCCO)n(CCO)c(=S)[nH]1 [Example 168, 6-[2-(2-hydroxyethoxy)phenyl]-1-(2-hydroxyethyl)-2-thioxo-2,3-dihydropyrimidin-4(1H)-one] | 8890 1/s per M

Row | Structure (SMILES) | MPO kinact/Ki
19 | COc1ccc(OC)c(-c2cc(=O)[nH]c(=S)n2CCO)c1 [Example 169, 6-(2,5-dimethoxyphenyl)-1-(2-hydroxyethyl)-2-thioxo-2,3-dihydropyrimidin-4(1H)-one] | 17800 1/s per M
20 | COc1ccc(C#N)cc1-c1cc(=O)[nH]c(=S)n1CC(N)=O [Example 170, 2-[6-(5-cyano-2-methoxyphenyl)-4-oxo-2-thioxo-3,4-dihydropyrimidin-1(2H)-yl]acetamide] | 4030 1/s per M
21 | COCCn1c(-c2cc(C#N)ccc2OC)cc(=O)[nH]c1=S [Example 171, 4-methoxy-3-[3-(2-methoxyethyl)-6-oxo-2-thioxo-1,2,3,6-tetrahydropyrimidin-4-yl]benzonitrile] | 8590 1/s per M
22 | COc1ccc(-c2cc(=O)[nH]c(=S)n2CCOC(C)C)cc1 [Example 172, 1-(2-isopropoxyethyl)-6-(4-methoxyphenyl)-2-thioxo-2,3-dihydropyrimidin-4(1H)-one] | 2950 1/s per M
23 | COc1ccccc1-c1cc(=O)[nH]c(=S)n1CCOC(C)C [Example 173, 1-(2-isopropoxyethyl)-6-(2-methoxyphenyl)-2-thioxo-2,3-dihydropyrimidin-4(1H)-one] | 2910 1/s per M
24 | COc1ccc(-c2cc(=O)[nH]c(=S)n2CC(N)=O)c(OC)c1 [Example 174, 2-[6-(2,4-dimethoxyphenyl)-4-oxo-2-thioxo-3,4-dihydropyrimidin-1(2H)-yl]acetamide] | 10500 1/s per M
25 | COc1ccc(-c2cc(=O)[nH]c(=S)n2C[C@@H](C)N)c(OC)c1 [Example 175, 1-[(2R)-2-aminopropyl]-6-(2,4-dimethoxyphenyl)-2-thioxo-2,3-dihydropyrimidin-4(1H)-one hydrochloride] | 459 1/s per M
26 | COc1ccc(-c2cc(=O)[nH]c(=S)n2C[C@H](C)N)c(OC)c1 [Example 176, 1-[(2S)-2-aminopropyl]-6-(2,4-dimethoxyphenyl)-2-thioxo-2,3-dihydropyrimidin-4(1H)-one hydrochloride] | 2160 1/s per M
27 | CNCCn1c(-c2ccc(OC)cc2OC)cc(=O)[nH]c1=S [Example 177, 6-(2,4-dimethoxyphenyl)-1-[2-(methylamino)ethyl]-2-thioxo-2,3-dihydropyrimidin-4(1H)-one formate] | 5130 1/s per M
28 | COc1ccc(-c2cc(=O)[nH]c(=S)n2CCCN)c(OC)c1 [Example 178, 1-(3-aminopropyl)-6-(2,4-dimethoxyphenyl)-2-thioxo-2,3-dihydropyrimidin-4(1H)-one formate] | 11100 1/s per M
29 | COc1ccc(-c2cc(=O)[nH]c(=S)n2CC(C)O)c(OC)c1 (stereo not drawn) [Example 179, 6-(2,4-dimethoxyphenyl)-1-(2-hydroxypropyl)-2-thioxo-2,3-dihydropyrimidin-4(1H)-one] | 2790 1/s per M
30 | COCCn1c(-c2c(OC)cccc2OC)cc(=O)[nH]c1=S [Example 180, 6-(2,6-dimethoxyphenyl)-1-(2-methoxyethyl)-2-thioxo-2,3-dihydropyrimidin-4(1H)-one] | 6960 1/s per M
31 | COc1ccc(-c2cc(=O)[nH]c(=S)n2CCCO)c(OC)c1 [Example 181, 6-(2,4-dimethoxyphenyl)-1-(3-hydroxypropyl)-2-thioxo-2,3-dihydropyrimidin-4(1H)-one] | 7160 1/s per M
32 | COCCn1c(-c2ccc(OC)cc2OC)cc(=O)[nH]c1=S [Example 182, 6-(2,4-dimethoxyphenyl)-1-(2-methoxyethyl)-2-thioxo-2,3-dihydropyrimidin-4(1H)-one] | 8200 1/s per M
33 | NCCn1c(-c2cccc(Br)c2)cc(=O)[nH]c1=S [Example 183, 1-(2-aminoethyl)-6-(3-bromophenyl)-2-thioxo-2,3-dihydropyrimidin-4(1H)-one hydrochloride] | 4830 1/s per M
34 | COc1cc(OC)c(-c2cc(=O)[nH]c(=S)n2CCO)cc1F [Example 184, 6-(5-fluoro-2,4-dimethoxyphenyl)-1-(2-hydroxyethyl)-2-thioxo-2,3-dihydropyrimidin-4(1H)-one] | 5970 1/s per M
35 | COc1ccc(-c2cc(=O)[nH]c(=S)n2CCN)c2ccccc12 [Example 185, 1-(2-aminoethyl)-6-(4-methoxy-1-naphthyl)-2-thioxo-2,3-dihydropyrimidin-4(1H)-one hydrochloride] | 9740 1/s per M
36 | O=c1cc(-c2ccccc2OC(F)(F)F)n(CCO)c(=S)[nH]1 [Example 186, 1-(2-hydroxyethyl)-2-thioxo-6-[2-(trifluoromethoxy)phenyl]-2,3-dihydropyrimidin-4(1H)-one] | 3930 1/s per M
